Data published in PubChem BioAssay AID1552 (Sanford-Burnham Center for Chemical Genomics, 2009).
Active and inactive are the calls of the source. No rule for the calls is given here.

Each compound was assayed against Ubiquitin-conjugating enzyme E2 N (Homo sapiens) (UniProt P61088) (assay: UBE2N binders by NMR, biophysical, purified protein (AID 1552)). Details: NMR binding to purified UBE2N.
Chain of Ubiquitin-conjugating enzyme E2 N (Homo sapiens) (P61088 whole entry, looked up): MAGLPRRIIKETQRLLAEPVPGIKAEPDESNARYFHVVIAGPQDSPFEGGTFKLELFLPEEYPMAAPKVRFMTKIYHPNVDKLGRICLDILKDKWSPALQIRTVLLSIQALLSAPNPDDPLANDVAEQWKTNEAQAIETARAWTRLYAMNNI
`Cc1cc(C)n2nc(NCc3ccccc3)nc2n1` was tested, and the Kd was > 4 mM (inactive). `CC(C)(C)Cc1nc(-c2ccccn2)no1` was tested, and the Kd was > 4 mM (inactive). For `COc1cc2c(cc1OC)C1=C(C#N)CCC(=O)N1CC2`, the Kd was > 4 mM (inactive). With `COc1cccc(-c2nc(-c3ccccn3)no2)c1OC` the Kd was > 4 mM (inactive). `O=C1N=c2ccccc2=C1c1[nH]c(=S)[nH]c1O` was tested, and the Kd was > 4 mM (inactive). With `COc1ccccc1NC(=O)/C=N/O` the Kd was > 4 mM (inactive). In the case of `Cc1cccc(-c2nnc(-c3ccc(N)cc3)o2)c1`, the Kd is reported as > 4 mM (inactive). With `Nc1ccccc1C(=O)CC(N)C(=O)O` (stereo not drawn) the Kd was > 4 mM (inactive). With `COc1ccccc1NC(=O)C1CCC(=O)N1` (stereo not drawn) the Kd was > 4 mM (inactive). For `S=C(c1ccc2c(c1)OCO2)N1CCCC1`, the Kd was > 4 mM (inactive). `CCOc1ccc(Cl)cc1S(=O)(=O)N1CCCC1` was tested, and the Kd was > 4 mM (inactive). With `c1ccc(-c2n[nH]c(-c3ccccn3)n2)nc1` the Kd was > 4 mM (inactive). `Nc1cccc(S(=O)(=O)N2CCCCC2)c1` was tested, and the Kd was > 4 mM (inactive). `O=C(Nc1ccc(N2CCOCC2)cc1)C1CC1` was tested, and the Kd was > 4 mM (inactive). For `Cc1nnc(NCCCO)[nH]c1=O`, the Kd was > 4 mM (inactive). `O=C(Nn1cnnc1)c1cccc(C(F)(F)F)c1` was tested, and the Kd was > 4 mM (inactive). With `COC(=O)Nc1ccc2ncn(C)c(=O)c2c1` the Kd was > 4 mM (inactive). For `COC(=O)Cc1cc(=O)n(-c2nc3ccccc3s2)[nH]1`, the Kd was > 4 mM (inactive). With `Cc1nnsc1-c1onc(C)c1C(=O)O` the Kd was > 4 mM (inactive). With `CC(=O)NCC1(c2ccccc2)CCOCC1` the Kd was > 4 mM (inactive). In the case of `Cc1ncc(C[n+]2csc3ccccc32)c(N)n1`, the Kd is reported as > 4 mM (inactive). `CN(C)C(=O)Nc1ccc2c(c1)nnn2C` was tested, and the Kd was > 4 mM (inactive). `OCc1ccc(-c2cccs2)s1` was tested, and the Kd was > 4 mM (inactive). For `CC1=C2C(O)C(=O)OC3CC4C(C)(C)C(=O)C=C[C@]4(C)C(CC1)[C@]23C` (stereo partly drawn), the Kd was > 4 mM (inactive). For `S=c1[nH]nc(-c2cccnc2)n1Cc1ccccc1`, the Kd was > 4 mM (inactive). `S=C(NCc1cccnc1)NC1CC1` was tested, and the Kd was > 4 mM (inactive). `Cc1ccccc1NC(=O)CC1SC(N)=NC1=O` (stereo not drawn) was tested, and the Kd was > 4 mM (inactive). With `Cc1cc(SCC(=O)Nc2nccs2)nc(=O)[nH]1` the Kd was > 4 mM (inactive). With `CCNC(=O)CC1Nc2ccccc2NC1=O` (stereo not drawn) the Kd was > 4 mM (inactive). With `Cn1nnc2cc(CO)ccc21` the Kd was > 4 mM (inactive). For `COc1ccc(-c2coc3cc(O)ccc3c2=O)c(OC)c1`, the Kd was > 4 mM (inactive). In the case of `O=S(=O)(c1cccc(Cl)c1)N1CCCC1`, the Kd is reported as > 4 mM (inactive). In the case of `CN1CN(Cc2ccccc2)CN/C1=N/[N+](=O)[O-]`, the Kd is reported as > 4 mM (inactive). For `COC(=O)c1c(C)cc(OC)cc1O`, the Kd was > 4 mM (inactive). With `COc1ccccc1Nc1nncc(=O)[nH]1` the Kd was > 4 mM (inactive). `Nc1cc(C(F)(F)F)ccc1N1CCOCC1` was tested, and the Kd was > 4 mM (inactive). In the case of `O=C(/C=C/c1ccc(O)cc1)c1ccc(O)cc1O`, the Kd is reported as > 4 mM (inactive). With `Cc1ccc2c(C)c(C(=O)Nc3nnc(C)s3)oc2c1` the Kd was > 4 mM (inactive). `COc1ccc2c(c1)=C(c1sc(N)nc1O)C(=O)N=2` was tested, and the Kd was > 4 mM (inactive). For `COc1ccc(N2CC(=O)NC2=O)cc1`, the Kd was > 4 mM (inactive). `COc1cc([C@@H]2c3cc4c(c(O)c3C[C@H]3COC(=O)[C@@H]32)OCO4)cc(OC)c1OC` was tested, and the Kd was > 4 mM (inactive). With `CCCCC(Nc1n[nH]c(=O)[nH]c1=O)C(=O)O` (stereo not drawn) the Kd was > 4 mM (inactive). In the case of `O=C(NCc1ccco1)c1ccc(=O)[nH]c1`, the Kd is reported as > 4 mM (inactive). `c1n[nH]cc1-c1cn[nH]c1` was tested, and the Kd was > 4 mM (inactive). In the case of `Cc1cc(C(=O)NCc2ccccc2Br)no1`, the Kd is reported as > 4 mM (inactive). `Cc1cc(C(=O)N2CCN(S(C)(=O)=O)CC2)cs1` was tested, and the Kd was > 4 mM (inactive). With `O=C(O)c1ccc(-n2cccc2)cc1` the Kd was > 4 mM (inactive). With `Nc1nc(SCC(=O)c2ccc([N+](=O)[O-])cc2)n[nH]1` the Kd was > 4 mM (inactive). For `OCCOc1ccc(C2=NCCO2)cc1`, the Kd was > 4 mM (inactive). `CCOC(=O)c1c(C)nc2c(C#N)cnn2c1C` was tested, and the Kd was > 4 mM (inactive). For `c1ccc2c(c1)CN1CCCC1=N2`, the Kd was > 4 mM (inactive). In the case of `COc1cc2c(cc1OC)[C@@H]1C(=O)c3ccc4c(c3O[C@@H]1CO2)CC(C(C)C)O4` (stereo partly drawn), the Kd is reported as > 4 mM (inactive). `O=C(O)c1cnc2sc3ccccc3n2c1=O` was tested, and the Kd was > 4 mM (inactive). For `COc1cc2c(cc1OC)Cc1cc(OC)c(OC)cc1Cc1cc(OC)c(OC)cc1C2`, the Kd was > 4 mM (inactive). In the case of `COc1cc(C(=S)N2CCCC2)cc(Cl)c1O`, the Kd is reported as > 4 mM (inactive). `Cc1cc(C)n(-c2nncn2N)n1` was tested, and the Kd was > 4 mM (inactive). In the case of `C=C[C@H]1CN2CC[C@H]1C[C@H]2[C@H](O)c1ccnc2ccccc12`, the Kd is reported as > 4 mM (inactive). `Cc1noc(C)c1C(=O)Nc1sc(C)c(C)c1C#N` was tested, and the Kd was > 4 mM (inactive). `O=C(OCc1c(F)cccc1Cl)c1cnccn1` was tested, and the Kd was > 4 mM (inactive). For `O=C(O)CC(O)c1nc2ccccc2[nH]1` (stereo not drawn), the Kd was > 4 mM (inactive). `O[C@H]1C=C2CCN3Cc4cc5c(cc4C(C23)[C@@H]1O)OCO5` (stereo partly drawn) was tested, and the Kd was > 4 mM (inactive). `O=C(O)c1cccc(CSc2ncccn2)c1` was tested, and the Kd was > 4 mM (inactive). In the case of `OCc1ccncc1`, the Kd is reported as > 4 mM (inactive). `O=C(Nc1ccccc1C(F)(F)F)N1CCCCCC1` was tested, and the Kd was > 4 mM (inactive). `O=C(NCc1cccs1)c1nn2cccnc2c1Cl` was tested, and the Kd was > 4 mM (inactive). `COC1C(O)C(O[C@H]2CC[C@]3(C=O)C4C(CC[C@]3(O)C2)[C@@]2(O)CC[C@H](C3=CC(=O)OC3)[C@@]2(C)C[C@H]4OC(C)=O)OC(C)C1OC(C)=O` (stereo partly drawn) was tested, and the Kd was > 4 mM (inactive). `NC(=O)c1ccsc1NC(=O)C1=COCCO1` was tested, and the Kd was > 4 mM (inactive). `CSc1ncc(CO)n1Cc1ccccc1` was tested, and the Kd was > 4 mM (inactive). With `Nc1[nH]c(=S)ncc1S(=O)(=O)c1ccccc1` the Kd was > 4 mM (inactive). With `COc1cccc(-c2nn(-c3ccccc3)cc2CO)c1` the Kd was > 4 mM (inactive). In the case of `O=C(Nc1nncs1)C1(c2ccccc2)CCCC1`, the Kd is reported as > 4 mM (inactive). `Cc1cc(C)nc(/N=C(/N)N2CCN(C)CC2)n1` was tested, and the Kd was > 4 mM (inactive). `O=S(=O)(NCc1ccco1)c1cccc2cccnc12` was tested, and the Kd was > 4 mM (inactive). For `Cc1csc(SCC(=O)N2CCCC2)n1`, the Kd was > 4 mM (inactive). With `CCc1c(C)[nH]c(=S)c(C(N)=O)c1C` the Kd was > 4 mM (inactive). With `O=C(NN1C(=O)CSC1=S)c1ccccc1` the Kd was > 4 mM (inactive). `OC[C@H]1O[C@@H](n2cnc3c(NCc4ccco4)ncnc32)[C@H](O)[C@@H]1O` was tested, and the Kd was > 4 mM (inactive). In the case of `COc1ccc2nc(N)sc2c1`, the Kd is reported as > 4 mM (inactive). In the case of `COc1nc(C#N)c(N2CCOCC2)o1`, the Kd is reported as > 4 mM (inactive). With `COC(=O)c1ccc(N2CCCC2)nc1` the Kd was > 4 mM (inactive). For `O=c1ccc2ccc(O)cc2o1`, the Kd was > 4 mM (inactive). For `Cn1cnc2nc3n(c2c1=O)CCC3`, the Kd was > 4 mM (inactive). With `O=C(O)CC[N+](=O)[O-]` the Kd was > 4 mM (inactive). With `NCc1ccccc1N1CCOCC1` the Kd was > 4 mM (inactive). With `O=CN1CCN(C(=O)c2ccco2)CC1` the Kd was > 4 mM (inactive). With `O=C(C1CCCCC1)N1CCN(c2ccccc2F)CC1` the Kd was > 4 mM (inactive). For `Cc1c(N=CN2CCOCC2)c(=O)n(C)c(=O)n1C`, the Kd was > 4 mM (inactive). For `Cc1ccc(SCc2nc(-c3ccncc3)no2)cc1`, the Kd was > 4 mM (inactive). In the case of `c1ccc(-c2nc3ccccc3nc2-c2ccccn2)nc1`, the Kd is reported as > 4 mM (inactive). For `O=C1CCC(C(=O)NCc2cccnc2)N1` (stereo not drawn), the Kd was > 4 mM (inactive). In the case of `CC1CCCN(C/C(O)=C(\C#N)c2nc3ccccc3[nH]2)C1` (stereo not drawn), the Kd is reported as > 4 mM (inactive). For `COc1cc(/C=C/C(=O)O)cc(OC)c1OC`, the Kd was > 4 mM (inactive). `CCSc1nnc2[nH]c(=O)cc(C)n12` was tested, and the Kd was > 4 mM (inactive). In the case of `Cn1nnc2c(Cl)ncnc21`, the Kd is reported as > 4 mM (inactive). In the case of `CCc1c(C)n([O-])c2c([n+]1=O)CCC2`, the Kd is reported as > 4 mM (inactive). With `CN1CCN(C(=O)c2ccccc2C(=O)O)CC1` the Kd was > 4 mM (inactive). With `COc1ccccc1N1C(=N)SCC1=O` the Kd was > 4 mM (inactive). With `O=C(O)c1ccc2occc2c1` the Kd was > 4 mM (inactive). With `COC(=O)c1cc(C)on1` the Kd was > 4 mM (inactive). For `COc1ccccc1NS(=O)(=O)c1c[nH]c(=O)[nH]c1=O`, the Kd was > 4 mM (inactive). With `O=C(CSc1nnc2ccccn12)N1CCOCC1` the Kd was > 4 mM (inactive). With `c1cc(CNc2ccc3c(c2)OCCO3)ccn1` the Kd was > 4 mM (inactive). `c1cnc(N2CCNCC2)nc1` was tested, and the Kd was > 4 mM (inactive). `Cc1nnc2ccc(N3CCCC3)nn12` was tested, and the Kd was > 4 mM (inactive). With `CC(C)=CC1C(CO)C1(C)C` (stereo not drawn) the Kd was > 4 mM (inactive). For `O=C1C2CCCCC2C(=O)N1c1nccs1` (stereo not drawn), the Kd was > 4 mM (inactive). `Nc1nnc(-c2ccncc2)s1` was tested, and the Kd was > 4 mM (inactive). With `CC12CC[C@H](CC1=O)C2(C)C` the Kd was > 4 mM (inactive). For `O=c1[nH]c2ccc(S(=O)(=O)NC3CC3)cc2[nH]1`, the Kd was > 4 mM (inactive). `CN1CCN(CC(=O)N2CCc3ccccc32)CC1` was tested, and the Kd was > 4 mM (inactive). For `O=C(O)CC12CC3CC(CC(O)(C3)C1)C2`, the Kd was > 4 mM (inactive). `COc1ccc(-c2c(O)c3c(OC)c4c(cc3oc2=O)OC(C)(C)CC4)cc1` was tested, and the Kd was > 4 mM (inactive). For `COc1cc(OC)c(-c2nc3cnccc3n2C)cc1OC`, the Kd was > 4 mM (inactive). In the case of `O=C(Nc1cccnc1)N1CCOCC1`, the Kd is reported as > 4 mM (inactive). With `O=C(Nc1cccc2cccnc12)c1cccnc1` the Kd was > 4 mM (inactive). `CCn1c(C)c(C(C)=O)c(N2CCOCC2)nc1=S` was tested, and the Kd was > 4 mM (inactive). In the case of `COC(=O)C(O)[C@@H]1C2(C)C(=O)[C@@H](CC3=C4CC(=O)O[C@@H](c5ccoc5)[C@]4(C)CCC32)[C@H](OC(C)=O)C1(C)C` (stereo partly drawn), the Kd is reported as > 4 mM (inactive). With `O=C(O)c1ccc(CN2CCOCC2)cc1` the Kd was > 4 mM (inactive). With `OCc1cccs1` the Kd was > 4 mM (inactive). `NC(=O)C1CCN(CC2CC=CCC2)CC1` (stereo not drawn) was tested, and the Kd was > 4 mM (inactive). `NC(=O)C1CCN(C(=S)c2ccccc2)CC1` was tested, and the Kd was > 4 mM (inactive). In the case of `OCc1ccc2nsnc2c1`, the Kd is reported as > 4 mM (inactive). `CC(N)C(=O)c1ccco1` (stereo not drawn) was tested, and the Kd was > 4 mM (inactive).
